The results in this text go back to ChEMBL document CHEMBL4765364, “Synthesis, antibacterial and antifungal activity of new 3-biphenyl-3H-Imidazo[1,2-a]azepin-1-ium bromides” (Eur J Med Chem, 2020).

In data set [1] the test system is Staphylococcus aureus. The data set can be described thus: Antibacterial activity against methicillin resistant Staphylococcus aureus ATCC 43300 measured after 18 hrs. The class given is functional.
Data set [2] relates to Cryptococcus neoformans. The data set is described as follows: Antifungal activity against Cryptococcus neoformans ATCC 208821 measured after 24 hrs by resazurin dye based assay. The format is functional. For orientation: Alamar Blue is a resazurin reagent that responds to reducing activity.
The test system of data set [3] is Escherichia coli. The data set is described as follows: Antibacterial activity against Escherichia coli ATCC 25922 measured after 18 hrs. The format is functional.
A short description of data set [4]: Cytotoxicity against HEK293 cells measured after 20 hrs by resazurin dye based fluorescence assay. The class given is cell-based. Particulars: human.
Data set [5] has as its system Klebsiella pneumoniae. The data set is described as follows: Antibacterial activity against Klebsiella pneumoniae ATCC 700603 at 32 ug/ml measured after 18 hrs. The class given is functional. Particulars: dose 32 µg/ml.
In data set [6] the test system is Escherichia coli. The data set is described as follows: Antibacterial activity against Escherichia coli ATCC 25922 at 32 ug/ml measured after 18 hrs. The following applies: dose 32 µg/ml. The format is functional.
Data set [7] has as its system Candida albicans. The data set can be described thus: Antifungal activity against Candida albicans ATCC 90028 at 32 ug/ml measured after 24 hrs by resazurin dye based assay. The format is functional. The following applies: dose 32 µg/ml.
Data set [8] has as its system Acinetobacter baumannii. The data set can be described thus: Antibacterial activity against Acinetobacter baumannii ATCC 19606 measured after 18 hrs. The class given is functional. Particulars: ATCC 19606 = CIP 70.34 = JCM 6841.
The subject of data set [9] is Klebsiella pneumoniae. The data set can be described thus: Antibacterial activity against Klebsiella pneumoniae ATCC 700603 measured after 18 hrs. The class given is functional.
For data set [10], the system named is Acinetobacter baumannii. The data set is described as follows: Antibacterial activity against Acinetobacter baumannii ATCC 19606 at 32 ug/ml measured after 18 hrs. The class given is functional, ATCC 19606 = CIP 70.34 = JCM 6841. Particulars: dose 32 µg/ml.
Data set [11] deals with Cryptococcus neoformans. The data set can be described thus: Antifungal activity against Cryptococcus neoformans ATCC 208821 at 32 ug/ml measured after 24 hrs by resazurin dye based assay. The class given is functional. The following applies: dose 32 µg/ml.
Data set [12] concerns Pseudomonas aeruginosa. The data set can be described thus: Antibacterial activity against Pseudomonas aeruginosa ATCC 27853 measured after 18 hrs. The class given is functional.
For data set [13], the system named is Pseudomonas aeruginosa. The data set is described as follows: Antibacterial activity against Pseudomonas aeruginosa ATCC 27853 at 32 ug/ml measured after 18 hrs. The class given is functional. Particulars: dose 32 µg/ml.
For data set [14], the system named is Candida albicans. The data set can be described thus: Antifungal activity against Candida albicans ATCC 90028 measured after 24 hrs by resazurin dye based assay. The class given is functional.
Data set [15] deals with Staphylococcus aureus. The data set is described as follows: Antibacterial activity against methicillin resistant Staphylococcus aureus ATCC 43300 at 32 ug/ml measured after 18 hrs. Particulars: dose 32 µg/ml. The class given is functional.

SMILES strings stand for the structures. Bounds are passed on as bounds.

On to `Cc1ccc([N+]2=C3CCCCCN3C(O)(c3ccc(-c4ccccc4)cc3)C2)cc1.[Br-]` (stereo not given), for which the minimum inhibitory concentration (MIC) (in general, the smallest concentration in the dilution series that meets the test's criterion for growth inhibition) with Staphylococcus aureus [1] was 16 µg/mL; in the data set on Cryptococcus neoformans [2] it was greater than 32 µg/mL; against Escherichia coli [3], greater than 32 µg/mL; against Acinetobacter baumannii [8], greater than 32 µg/mL; in the data set with Klebsiella pneumoniae [9], greater than 32 µg/mL; with Pseudomonas aeruginosa [12] it was greater than 32 µg/mL. The molecule further showed an MIC in the data set with Candida albicans [14] greater than 32 µg/mL. In addition, the CC50 (usually the concentration at which the toxic effect on the cells reaches its halfway point) at 20 h in data set [4] was 2.7 µg/mL. Moreover, the Activity with Klebsiella pneumoniae [5], in the data set on Escherichia coli [6], in the data set on Candida albicans [7], in the data set with Acinetobacter baumannii [10], in the data set on Cryptococcus neoformans [11] and with Pseudomonas aeruginosa [13] was greater than 80% each time. In addition, the Activity in the data set with Staphylococcus aureus [15] was greater than 80%.

With `CCc1ccc(-[n+]2cc(-c3ccc(-c4ccccc4)cc3)n3c2CCCCC3)cc1.[Br-]`, the MIC against Staphylococcus aureus [1] is 4 µg/mL; against Cryptococcus neoformans [2], 8 µg/mL; in the data set with Escherichia coli [3] it was greater than 32 µg/mL; against Acinetobacter baumannii [8], greater than 32 µg/mL; against Klebsiella pneumoniae [9], greater than 32 µg/mL; with Pseudomonas aeruginosa [12] it was 32 µg/mL. The MIC in the data set on Candida albicans [14] is 4 µg/mL. The midpoint of cytotoxicity in data set [4], the CC50 at 20 h, lay at 1.4 µg/mL. Moreover, the Activity in the data set with Klebsiella pneumoniae [5], with Escherichia coli [6], in the data set on Candida albicans [7], with Acinetobacter baumannii [10], with Cryptococcus neoformans [11] and in the data set with Pseudomonas aeruginosa [13] was greater than 80% in each case. The Activity with Staphylococcus aureus [15] was greater than 80%.

For `Cc1ccc(-[n+]2cc(-c3ccc(-c4ccccc4)cc3)n3c2CCCCC3)cc1.[Br-]`, the MIC in the data set on Staphylococcus aureus [1] was 8 µg/mL; against Cryptococcus neoformans [2], 16 µg/mL; in the data set on Escherichia coli [3], greater than 32 µg/mL; with Acinetobacter baumannii [8], greater than 32 µg/mL; in the data set on Klebsiella pneumoniae [9], greater than 32 µg/mL; in the data set on Pseudomonas aeruginosa [12], greater than 32 µg/mL. The MIC against Candida albicans [14] is 8 µg/mL. Half-maximal cytotoxicity in [4] (CC50 at 20 h) was put at 2.1 µg/mL. In addition, the Activity in the data set on Klebsiella pneumoniae [5], in the data set with Escherichia coli [6], in the data set with Candida albicans [7], in the data set on Acinetobacter baumannii [10], with Cryptococcus neoformans [11] and in the data set on Pseudomonas aeruginosa [13] was greater than 80% each time. The Activity in the data set with Staphylococcus aureus [15] is greater than 80%.
